Assay results reported in patent publication US20060275217A1, “Chemical exchange saturation transfer contrast agents” (priority 2005, published 2006).

Test system: blood pool
Assay: Mouse CEST MR imaging at 4.7T
Format: in vivo
Settings: mouse sacrificed 1 minute after injection, ~0.6 mmol Eu(II)/kg, saturation at -52 ppm vs +52 ppm
Method: Data was recorded at 4.7T on Bruker MR imager in a mouse sacrificed 1 minute after injection of Eu-polyLysine CEST (Example 4a) compound in water at a ˜0.6 mmol Eu(II)/kg dose (saturation pulse with a power of ˜25 μT for 2.0 s using 1000 Gauss pulses of 2 ms each).
Reference tubes contain from left to right: water, compound at 10 mM Eu(III) concentration, compound at 50 mM Eu(III) concentration and, Magnevist at a concentration such that T1˜1s.

## polylysine conjugate with the europium complex of 1,4,7,10-tetra-[N-(carboxymethyl)-carbamoyl-methyl]1,4,7,10-tetraaza-cyclododecane [Example 4a]
  contrast in digital difference axial image (control minus CEST image): contrast enhancement in the blood pool
